Test [1] relates to S. aureus RN450. Nature of the test: In Vitro Anti-Bacterial Activity Assay (MIC), gram positive. Format: cell-based. The note with it: for MIC: Staphylococcus aureus, RN450, 18 h.
The subject of test [2] is E. coli mL308 225. Nature of the test: In Vitro Anti-Bacterial Activity Assay (MIC), gram negative. Type of test: cell-based. The note with it: for MIC: Escherichia coli, ML308225, 18 h.
Setting [3] is: MIC class, Table 3, read-out: Antibiotic Activity Gram +.
The mark [4] stands for this setting: MIC class, Table 3, read-out: Antibiotic Activity Gram −.
[5] abbreviates: MIC class, Table 3 (Continued), read-out: Gram+ activity.
Setting [6] is: MIC class, Table 3 (Continued), read-out: Gram− activity.
[7] abbreviates: gram positive bacteria, read-out: Antibiotic Activity Gram + (MIC).
The mark [8] stands for this setting: gram negative bacteria, read-out: Antibiotic Activity Gram − (MIC).

Read-outs that look alike come from different tables or passages of the source. Bounds are passed on as bounds.

As for `CN(C)[C@@H]1C(O)=C(C(N)=O)C(=O)[C@@]2(O)C(O)=C3C(=O)c4c(O)ccc(-c5ccc(CN6CCCC6)cc5)c4C[C@H]3C[C@@H]12` [JZ], the MIC in test [1] (setting [3]) and in test [2] (setting [4]) was under 4 µg/mL in each case.
On to `CC(C)CNCc1cc(N(C)C)c2c(c1O)C(=O)C1=C(O)[C@]3(O)C(=O)C(C(N)=O)=C(O)[C@@H](N(C)C)[C@@H]3C[C@@H]1C2` [drawing 3475], for which the “Antibiotic Activity Gram + (MIC)” value in test [1] (gram positive bacteria) is “* (compounds with an MIC of greater than 4 μg/ml are indicated with *)”. For the same compound, the “Antibiotic Activity Gram − (MIC)” value in test [2] (gram negative bacteria) is given as “* (compounds with an MIC of greater than 4 μg/ml are indicated with *)”.
As for `Cc1ccc(-c2ccc(O)c3c2C[C@H]2C[C@H]4[C@H](N(C)C)C(O)=C(C(N)=O)C(=O)[C@@]4(O)C(O)=C2C3=O)cc1`, the MIC in test [1] (setting [5]) and in test [2] (setting [6]) was under 4 µg/mL each time.
Regarding `COc1ccc(C(=O)Nc2ccc(-c3ccc(O)c4c3C[C@H]3C[C@H]5C(N(C)C)C(O)=C(C(N)=O)C(=O)[C@@]5(O)C(O)=C3C4=O)cc2)cc1` (some centres unmarked) [HT], the MIC in test [1] (setting [3]) was under 4 µg/mL; in test [2] (setting [4]), over 4 µg/mL.
Turning to `CN(C)[C@@H]1C(O)=C(C(N)=O)C(=O)[C@@]2(O)C(O)=C3C(=O)c4c(O)ccc(CCc5ccccn5)c4C[C@H]3C[C@@H]12` [BY], the MIC in test [1] (setting [3]) was under 4 µg/mL; in test [2] (setting [4]) it was over 4 µg/mL.
For the compound `CC#Cc1cc(C#CC)c2c(c1O)C(=O)C1=C(O)[C@]3(O)C(=O)C(C(N)=O)=C(O)[C@@H](N(C)C)[C@@H]3C[C@@H]1C2`, the MIC in test [1] (setting [7]) and in test [2] (setting [8]) was over 4 µg/mL each time.
As to `CN(C)CCNC(=O)c1cccc(-c2ccc(O)c3c2C[C@H]2C[C@H]4[C@H](N(C)C)C(O)=C(C(N)=O)C(=O)[C@@]4(O)C(O)=C2C3=O)c1`, the results for the MIC in test [1] (setting [7]) and in test [2] (setting [8]) were under 4 µg/mL and over 4 µg/mL, respectively.
The like results for `CCCc1cc(N(C)C)c2c(c1O)C(=O)C1=C(O)[C@]3(O)C(=O)C(C(N)=O)=C(O)[C@@H](N(C)C)[C@@H]3C[C@@H]1C2` were, in that order, under 4 µg/mL and over 4 µg/mL.
For the compound `C[C@H]1c2ccc(CN3CCCCC3)c(O)c2C(=O)C2=C(O)[C@]3(O)C(=O)C(C(N)=O)=C(O)[C@@H](N(C)C)[C@@H]3[C@@H](O)[C@@H]21`, the MIC in test [1] (setting [7]) and in test [2] (setting [8]) was under 4 µg/mL in each case.
On to `COc1ccc(OC(=O)Nc2cc(N(C)C)c3c(c2O)C(=O)C2=C(O)[C@]4(O)C(=O)C(C(N)=O)=C(O)[C@H](N(C)C)[C@@H]4C[C@@H]2C3)cc1` [DV], for which the MIC in test [1] (read-out: Antibiotic Activity Gram +) and in test [2] (read-out: Antibiotic Activity Gram −) was over 4 µg/mL each time.
On to `CN(C)[C@@H]1C(O)=C(C(N)=O)C(=O)[C@@]2(O)C(O)=C3C(=O)c4c(O)ccc(/C=C/c5ccccc5)c4C[C@H]3C[C@@H]12`, for which the MIC in test [1] (setting [5]) and in test [2] (setting [6]) was under 4 µg/mL throughout.
With `CN(C)[C@@H]1C(O)=C(C(N)=O)C(=O)[C@@]2(O)C(O)=C3C(=O)c4c(O)ccc(C#CC(=O)O)c4C[C@H]3C[C@@H]12` [BH], the MIC in test [1] (setting [3]) and in test [2] (setting [4]) was over 4 µg/mL in each case.
Regarding `CCONC(C)c1ccc(O)c2c1C[C@H]1C[C@H]3[C@H](N(C)C)C(O)=C(C(N)=O)C(=O)[C@@]3(O)C(O)=C1C2=O` (some centres unmarked), the MIC in test [1] (setting [7]) and in test [2] (setting [8]) was under 4 µg/mL each time.
As for `CN(C)c1cc(NC(=S)Nc2cc(C(F)(F)F)cc(C(F)(F)F)c2)c(O)c2c1C[C@H]1C[C@H]3[C@H](N(C)C)C(O)=C(C(N)=O)C(=O)[C@@]3(O)C(O)=C1C2=O` [CI], the MIC is under 4 µg/mL in test [1] (setting [3]) and over 4 µg/mL in test [2] (setting [4]).
In the case of `CN(C)c1cc(CN2CCC(C(F)F)CC2)c(O)c2c1C[C@H]1C[C@H]3[C@H](N(C)C)C(O)=C(C(N)=O)C(=O)[C@@]3(O)C(O)=C1C2=O`, the MIC in test [1] (setting [7]) and in test [2] (setting [8]) was under 4 µg/mL throughout.
`CN(C)[C@@H]1C(O)=C(C(N)=O)C(=O)[C@@]2(O)C(O)=C3C(=O)c4c(O)c(CN5CCOCC5)cc(-c5ccoc5)c4C[C@H]3C[C@@H]12` [QA]: the MIC in test [1] (setting [3]) and in test [2] (setting [4]) was under 4 µg/mL each time.
Regarding `CN(C)[C@@H]1C(O)=C(C(N)=O)C(=O)[C@@]2(O)C(O)=C3C(=O)c4c(O)c(N)cc(-c5ccccn5)c4C[C@H]3C[C@@H]12`, the MIC in test [1] (setting [7]) is under 4 µg/mL; in test [2] (setting [8]), over 4 µg/mL.
As for `CN(C)[C@H]1C(O)=C(C(N)=O)C(=O)[C@@]2(O)C(O)=C3C(=O)c4c(O)ccc(-c5cccc(N)c5)c4C[C@H]3C[C@@H]12` [AM], the MIC in test [1] (setting [3]) and in test [2] (setting [4]) was under 4 µg/mL throughout.
On to `CCC(=O)c1ccc(O)c2c1C[C@H]1C[C@H]3[C@H](N(C)C)C(O)=C(C(N)=O)C(=O)[C@@]3(O)C(O)=C1C2=O` [EA], for which the MIC in test [1] (setting [3]) and in test [2] (setting [4]) was under 4 µg/mL each time.
As for `CCN(CC)c1ccc(-c2c[nH]c(Nc3ccc4c(c3O)C(=O)C3=C(O)[C@]5(O)C(=O)C(C(N)=O)=C(O)[C@@H](N(C)C)[C@@H]5[C@@H](O)[C@@H]3[C@H]4C)n2)cc1`, the values for the MIC in test [1] (setting [5]) and in test [2] (setting [6]) were under 4 µg/mL and over 4 µg/mL, respectively.
With `CC(C)Cc1ccc(O)c2c1C[C@H]1C[C@H]3[C@H](N(C)C)C(O)=C(C(N)=O)C(=O)[C@@]3(O)C(O)=C1C2=O`, the MIC in test [1] (setting [7]) and in test [2] (setting [8]) was under 4 µg/mL each time.
In the case of `CN(C)c1cc(CN2CCOCC2)c(O)c2c1C[C@H]1C[C@H]3[C@H](N(C)C)C(O)=C(C(N)=O)C(=O)[C@@]3(O)C(O)=C1C2=O`, the MIC in test [1] (setting [7]) is under 4 µg/mL; in test [2] (setting [8]) it was over 4 µg/mL.
For `CCCC#Cc1ccc(O)c2c1C[C@H]1C[C@H]3[C@H](N(C)C)C(O)=C(C(N)=O)C(=O)[C@@]3(O)C(O)=C1C2=O` [DK], the MIC in test [1] (setting [3]) and in test [2] (setting [4]) was over 4 µg/mL in each case.
Turning to `CN(C)c1cc(CNCc2cccn2C)c(O)c2c1C[C@H]1C[C@H]3[C@H](N(C)C)C(O)=C(C(N)=O)C(=O)[C@@]3(O)C(O)=C1C2=O`, the MIC in test [1] (setting [7]) was under 4 µg/mL; in test [2] (setting [8]), over 4 µg/mL.
Turning to `CC(CCO)NCc1cc(N(C)C)c2c(c1O)C(=O)C1=C(O)[C@]3(O)C(=O)C(C(N)=O)=C(O)[C@@H](N(C)C)[C@@H]3C[C@@H]1C2` (some centres unmarked), the MIC in test [1] (setting [7]) was under 4 µg/mL; in test [2] (setting [8]), over 4 µg/mL.
For `CN(C)[C@@H]1C(O)=C(C(N)=O)C(=O)[C@@]2(O)C(O)=C3C(=O)c4c(O)ccc(C#CC5(O)CCCCC5)c4C[C@H]3C[C@@H]12`, the MIC in test [1] (setting [5]) and in test [2] (setting [6]) was under 4 µg/mL throughout.
Take `CN(C)[C@@H]1C(O)=C(C(N)=O)C(=O)[C@@]2(O)C(O)=C3C(=O)c4c(O)ccc(-c5ccc(NC(=O)C6CCCN6C(=O)C(F)(F)F)cc5)c4C[C@H]3C[C@@H]12` (some centres unmarked) [OH]: the MIC in test [1] (setting [3]) is under 4 µg/mL; in test [2] (setting [4]), over 4 µg/mL.
On to `CCOc1ccccc1-c1ccc(O)c2c1C[C@H]1C[C@H]3[C@H](N(C)C)C(O)=C(C(N)=O)C(=O)[C@@]3(O)C(O)=C1C2=O` [AG], for which the MIC in test [1] (setting [3]) was under 4 µg/mL; in test [2] (setting [4]) it was over 4 µg/mL.
For `CN(C)[C@@H]1C(O)=C(C(N)=O)C(=O)[C@@]2(O)C(O)=C3C(=O)c4c(ccc(NC(=O)c5ccno5)c4O)C[C@H]3C[C@@H]12` [IJ], in that order: under 4 µg/mL and over 4 µg/mL.
`CCCC#Cc1cc(N(C)C)c2c(c1O)C(=O)C1=C(O)[C@]3(O)C(=O)C(C(N)=O)=C(O)[C@@H](N(C)C)[C@@H]3C[C@@H]1C2` [DY]: the MIC in test [1] (setting [3]) was under 4 µg/mL; in test [2] (setting [4]) it was over 4 µg/mL.
With `CN1CCN(c2cc(N(C)C)c3c(c2O)C(=O)C2=C(O)[C@]4(O)C(=O)C(C(N)=O)=C(O)[C@@H](N(C)C)[C@@H]4C[C@@H]2C3)CC1`, the MIC in test [1] (setting [7]) and in test [2] (setting [8]) was over 4 µg/mL throughout.
As to `CN(C)[C@@H]1C(O)=C(C(N)=O)C(=O)[C@@]2(O)C(O)=C3C(=O)c4c(O)cccc4/C(=C\c4ccc(F)cc4)[C@H]3[C@H](O)[C@@H]12`, the MIC in test [1] (setting [5]) and in test [2] (setting [6]) was under 4 µg/mL throughout.
For the compound `COCC(=O)Nc1cccc(-c2ccc(O)c3c2C[C@H]2C[C@H]4[C@H](N(C)C)C(O)=C(C(N)=O)C(=O)[C@@]4(O)C(O)=C2C3=O)c1`, the MIC is under 4 µg/mL in test [1] (setting [7]) and over 4 µg/mL in test [2] (setting [8]).
For `CN(C)[C@@H]1C(O)=C(C(N)=O)C(=O)[C@@]2(O)C(O)=C3C(=O)c4c(O)ccc(CNCc5ccc(F)cc5)c4C[C@H]3C[C@@H]12`, in that order: under 4 µg/mL and under 4 µg/mL.
As for `CN(C)[C@@H]1C(O)=C(C(N)=O)C(=O)[C@@]2(O)C(O)=C3C(=O)c4c(O)ccc(-c5ccc(NC(=O)NCCCCl)cc5)c4C[C@H]3C[C@@H]12`, the MIC in test [1] (setting [7]) is under 4 µg/mL; in test [2] (setting [8]) it was over 4 µg/mL.
For `CCCCC#Cc1cc(N(C)C)c2c(c1O)C(=O)C1=C(O)[C@]3(O)C(=O)C(C(N)=O)=C(O)[C@@H](N(C)C)[C@@H]3C[C@@H]1C2`, in that order: under 4 µg/mL and under 4 µg/mL.
Turning to `CN(C)c1cc(-c2ccc(C(=O)O)cc2)c(O)c2c1C[C@H]1C[C@H]3[C@@H](N(C)C)C(O)=C(C(N)=O)C(=O)[C@@]3(O)C(O)=C1C2=O` [AP], the MIC in test [1] (setting [3]) and in test [2] (setting [4]) was over 4 µg/mL each time.
As to `CN(C)c1cc(CNCc2ccc(C(=O)O)cc2)c(O)c2c1C[C@H]1C[C@H]3[C@H](N(C)C)C(O)=C(C(N)=O)C(=O)[C@@]3(O)C(O)=C1C2=O`, the MIC in test [1] (setting [7]) and in test [2] (setting [8]) was over 4 µg/mL each time.
As for `CN(C)c1cc(NC(=O)Nc2ccccc2)c(O)c2c1C[C@H]1C[C@H]3[C@H](N(C)C)C(O)=C(C(N)=O)C(=O)[C@@]3(O)C(O)=C1C2=O` [CB], the MIC is under 4 µg/mL in test [1] (setting [3]) and over 4 µg/mL in test [2] (setting [4]).
With `CN1CCC(NCc2ccc3c(c2O)C(=O)C2=C(O)[C@]4(O)C(=O)C(C(N)=O)=C(O)[C@@H](N(C)C)[C@@H]4C[C@@H]2C3)CC1`, the MIC in test [1] (setting [7]) and in test [2] (setting [8]) was over 4 µg/mL each time.
